Test systems include HOP-62 NSCLC; U251 CNS; ACHN renal; PC-3 prostate; HCT-116 colon; HT29 colon; MDA-N; TK-10 renal; RXF 393 renal; HCT-15 colon; M14 melanoma; OVCAR-8 ovarian; UACC-257 melanoma; SK-MEL-5 melanoma; OVCAR-4 ovarian; SK-MEL-28 melanoma; SNB-19 CNS; SNB-75 CNS; A498 renal; HOP-92 NSCLC.
Common to all, as to experiment: NCI tumour cell line growth inhibition, 48 h

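Briefly, cells in 96-well plates were exposed to five compound concentrations for 48 h, and endpoints were estimated by linear interpolation. TGI is the concentration that stops growth completely.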

`CN(/N=C/c1cccs1)c1ccc([N+](=O)[O-])cc1[N+](=O)[O-]`: the TGI in the assay with HOP-62 NSCLC, in the assay with U251 CNS, in the assay with ACHN renal, in the assay on PC-3 prostate, in the assay on HCT-116 colon and with HT29 colon was above 100 µM in each case. Further, the TGI with MDA-N, with TK-10 renal, in the assay on RXF 393 renal, in the assay with HCT-15 colon, in the assay with M14 melanoma and in the assay with OVCAR-8 ovarian was above 100 µM throughout. In addition, the TGI in the assay on UACC-257 melanoma, in the assay on SK-MEL-5 melanoma, in the assay with OVCAR-4 ovarian, in the assay on SK-MEL-28 melanoma, with SNB-19 CNS and in the assay on SNB-75 CNS was above 100 µM throughout.

As for `COc1ccc(-c2c(C#N)c(S)n(C3OC(CO)C(O)C(O)C3O)c(=O)c2C#N)cc1` (stereo unspecified), the TGI in the assay with HOP-62 NSCLC, with ACHN renal, in the assay with PC-3 prostate, in the assay with A498 renal, in the assay on HT29 colon and with MDA-N was above 100 µM in each case. Besides, the TGI in the assay on TK-10 renal, with RXF 393 renal, in the assay on HCT-15 colon, in the assay with M14 melanoma, with OVCAR-8 ovarian and in the assay with UACC-257 melanoma was above 100 µM throughout. Besides, the TGI with SK-MEL-5 melanoma, in the assay on SK-MEL-28 melanoma, in the assay with SNB-19 CNS and in the assay with SNB-75 CNS was above 100 µM throughout.

Take `O=C(CC(C(=O)c1cccs1)c1ccsc1)c1ccsc1` (stereo unspecified): the TGI in the assay on HOP-62 NSCLC is above 100 µM; in the assay with U251 CNS, above 100 µM; in the assay with ACHN renal, above 100 µM; with PC-3 prostate it was above 100 µM; in the assay with HCT-116 colon, above 100 µM; in the assay with A498 renal, 57.9 µM. Also, the TGI in the assay on HOP-92 NSCLC was above 100 µM; in the assay on HT29 colon, above 100 µM; with TK-10 renal it was above 100 µM; with RXF 393 renal it was above 100 µM; in the assay with HCT-15 colon it was above 100 µM; in the assay on M14 melanoma it was 50.8 µM. For the same molecule, the TGI in the assay on OVCAR-8 ovarian was above 100 µM; with UACC-257 melanoma, above 100 µM; in the assay with SK-MEL-5 melanoma, 64 µM; with OVCAR-4 ovarian it was above 100 µM; with SK-MEL-28 melanoma it was above 100 µM; with SNB-19 CNS it was above 100 µM. This molecule showed a TGI with SNB-75 CNS above 100 µM.

Take `O=Cc1cc2c(o1)C(=O)c1ccccc1C2=O`: the TGI in the assay on HOP-62 NSCLC came out at 2.6 µM; in the assay on U251 CNS, 2.73 µM; in the assay on ACHN renal it was 7.96 µM; in the assay on PC-3 prostate, 11.6 µM; in the assay on HCT-116 colon it was 1.18 µM; in the assay with A498 renal it was 9.44 µM. For the same molecule, the TGI was found to be 2.12 µM in the assay on HT29 colon; 0.352 µM in the assay with MDA-N; 8.52 µM in the assay on TK-10 renal; 2.99 µM with RXF 393 renal; 0.367 µM in the assay with M14 melanoma; 2.72 µM with OVCAR-8 ovarian. Also, the TGI was 1.5 µM in the assay with UACC-257 melanoma; 0.698 µM with SK-MEL-5 melanoma; 2.26 µM with OVCAR-4 ovarian; 1.08 µM in the assay on SK-MEL-28 melanoma; 1.62 µM in the assay with SNB-19 CNS; 0.858 µM in the assay on SNB-75 CNS.

For the molecule `COc1cc2c(c(OC)c1OC)C(=O)[C@H]1OC(=O)N[C@@H]21`, the TGI with HOP-62 NSCLC, in the assay with U251 CNS, with ACHN renal, in the assay on PC-3 prostate, with HCT-116 colon and in the assay with A498 renal was above 100 µM each time. Moreover, the TGI in the assay on HOP-92 NSCLC, in the assay on HT29 colon, in the assay on TK-10 renal, in the assay on RXF 393 renal, in the assay on HCT-15 colon and in the assay on M14 melanoma was above 100 µM each time. The TGI with OVCAR-8 ovarian, in the assay with UACC-257 melanoma, with OVCAR-4 ovarian, in the assay with SK-MEL-28 melanoma, in the assay with SNB-19 CNS and with SNB-75 CNS was above 100 µM in each case.

As for `COC(=O)[C@@]12OC[C@]34C([C@@H](O)C1O)[C@@]1(C)CC(=O)C(O)=C(C)C1C[C@H]3OC(=O)[C@H](OC(=O)CC(C)C(F)(F)F)[C@H]42` (stereo partly specified), the TGI in the assay with HOP-62 NSCLC was determined as 0.594 µM; in the assay on U251 CNS it was 0.214 µM; in the assay with ACHN renal it was 0.301 µM; in the assay on HCT-116 colon, 0.18 µM; in the assay with A498 renal, 0.121 µM; with HOP-92 NSCLC, 0.131 µM. For the same molecule, the TGI in the assay with HT29 colon came to 0.146 µM; in the assay with TK-10 renal, 1.29 µM; with RXF 393 renal it was 0.471 µM; in the assay with HCT-15 colon, 1.77 µM; with M14 melanoma, 0.124 µM; with OVCAR-8 ovarian, 0.491 µM. Moreover, the TGI was determined as 0.547 µM with UACC-257 melanoma; 0.0731 µM in the assay on SK-MEL-5 melanoma; 0.561 µM in the assay on OVCAR-4 ovarian; 0.111 µM in the assay on SK-MEL-28 melanoma; 0.108 µM with SNB-19 CNS; 0.187 µM in the assay with SNB-75 CNS.

In the case of `CCOC(=O)C1(Cc2c[nH]c3ccccc23)C(O)CCCN1C(C)=O` (stereo unspecified), the TGI with HOP-62 NSCLC, with U251 CNS, in the assay with ACHN renal, in the assay with PC-3 prostate, in the assay on HCT-116 colon and in the assay on A498 renal was above 100 µM each time. Also, the TGI in the assay with HOP-92 NSCLC, in the assay on HT29 colon, with TK-10 renal, in the assay on RXF 393 renal, in the assay with HCT-15 colon and with M14 melanoma was above 100 µM in each case. The TGI with OVCAR-8 ovarian, in the assay on UACC-257 melanoma, with SK-MEL-5 melanoma, in the assay with OVCAR-4 ovarian, with SK-MEL-28 melanoma and in the assay on SNB-19 CNS was above 100 µM each time. The molecule also displayed a TGI in the assay on SNB-75 CNS above 100 µM.

Values taken from PubChem BioAssay (NCI).
